Results taken from article PMC11396514, “Synthesis and Biological Evaluation of Novel Piperidine-3-Carboxamide Derivatives as Anti-Osteoporosis Agents Targeting Cathepsin K” (Molecules, 2024).
“Also recorded” adds a separate entry of the source.

Tests used:
Recombinant human Cat K = target: T1, Recombinant human Cat K (Homo sapiens, UniProt P43235); assay: In vitro enzymatic assay of Cat K inhibition (Z-Phe-Arg-AMC fluorescence); type: biochemical; conditions: pH 6.0, substrate Z-Phe-Arg-AMC, read-out: Cat K IC50 (µM) ± SD
T1 sequence (P43235 115-329): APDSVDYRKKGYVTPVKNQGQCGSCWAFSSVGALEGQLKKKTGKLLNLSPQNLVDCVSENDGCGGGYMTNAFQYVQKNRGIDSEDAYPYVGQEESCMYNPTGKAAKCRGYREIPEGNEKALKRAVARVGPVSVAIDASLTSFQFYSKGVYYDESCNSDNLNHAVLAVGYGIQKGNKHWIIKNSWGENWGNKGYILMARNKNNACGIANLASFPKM
Protocol: Compounds were tested at eight concentrations (100–0.001 µM). Recombinant human Cat K (5.5 ng/mL) in reaction buffer (50 µL) containing sodium acetate (50 mM), EDTA (2.5 mM), and DTT (1 mM) was added to a 96-well plate containing the test compounds at pH 6.0. The plate was incubated at 37 °C for 15 min, and the fluorescence (F1) was measured at 355 nm excitation and 460 nm emission using a microplate reader (Wallac 1420 Victor2, Norwalk, CA, USA). Subsequently, Z-Phe-Arg-AMC (20 µL, 10 µM) was added, and the plate was incubated at 37 °C for 1 h. Fluorescence (F2) was measured again at 355 nm excitation and 460 nm emission. The inhibition rate was calculated using the formula: inhibition (%) = [control (F2 − F1) − sample (F2–F1)]/[control (F2 − F1) − blank (F2 − F1)] × 100%. IC50 values were calculated using the SPSS 17.0 software.

[1] = tested on: RANKL-induced RAW264.7 cells; assay: In vitro anti-bone resorption assay: CTX-I released into culture medium (ELISA), cells on bovine femur slices; type: cell-based
From the text: (§1) Type I collagen, the predominant structural protein in bone, constitutes approximately 90% of the bone matrix protein [22]. During bone renewal, type I collagen is degraded, releasing short peptide fragments such as the C-terminal peptide of type I collagen (CTX-I) into the bloodstream. The concentration of CTX-I in the patient’s blood serves as a crucial biomarker for evaluating the degree of osteoporosis. In vitro, bone resorption can be assessed by measuring the concentration of CTX-I using a model in which osteoclasts are cultured on bone slices. In this experiment, the in vitro anti-bone resorption activities of the test compounds were evaluated in RANKL-induced RAW264.7 cells. This evaluation was based on the concentration of CTX-I released into the cell culture medium due to bone degradation, as well as the area of bone resorption pits formed on bone slices.
(§2) RAW264.7 cells, obtained from the cell bank of the Chinese Academy of Medical Sciences, were seeded into 96-well plates at a density of 1 × 10^5 cells per well with bovine femur slices. To induce cell differentiation, 50 ng mL^−1 of RANKL was added to the RAW264.7 cells. The cells were cultured for 5 days at 37 °C under 5% CO2 with the test compounds at a concentration of 1 µM. The culture supernatant was collected to measure the CTX-I concentration using ELISA. The bone slices were fixed with 2.5% glutaraldehyde for 7 min, then washed 3 times with 0.25 mol/L ammonium hydroxide, dehydrated using a series of ethanol solutions (40%, 75%, 80%, 95%, and anhydrous ethanol), and dried naturally. After staining with 1% toluidine blue solution at room temperature for 3–4 min, the bone slices were rinsed with distilled water and analyzed using an optical microscope. Bone resorption areas were calculated using image analysis software (iBright CL1500, Redmond, WA, USA).

[2] = tested on: RANKL-induced RAW264.7 cells; assay: In vitro anti-bone resorption assay: area of bone resorption pits on bone slices (toluidine blue); type: cell-based; conditions: compound 1 µM, 5 days, compared with MIV-711 / model group
From the text: as §1, §2

[3] = tested on: Cat K levels in RAW264.7 cells; assay: Western blotting assay of Cat K expression; type: cell-based; conditions: H-9 at 0, 1 and 5 µM for five days, RANKL-treated RAW264.7 cells
Protocol: To further verify the anti-bone resorption mechanism of the target compounds, a western blotting assay was carried out to assess the effect of compound H-9 on the expression of Cat K. […] RAW264.7 cells were treated with compound H-9 at concentrations of 0, 1, and 5 µM for five days, followed by cell lysis. Proteins were extracted and analyzed for Cat K levels. […] These western blotting results, combined with enzyme inhibitory activities and molecular docking analyses, confirm that the anti-bone resorption activity of compound H-9 is mediated through the inhibition of Cat K activity.
RAW264.7 cells were seeded into 12-well plates at a density of 1 × 10^5 cells per well, and 50 ng mL^−1 of RANKL was added to induce cell differentiation. The cells were cultured at 37 °C under 5% CO2 and treated with compound H-9 (0, 1, and 5 µM) for 5 days. The cells were then harvested, lysed, and centrifuged at 12,000× g for 10 min. The supernatants were collected and mixed with loading buffer, then heated to 100 °C. Total protein concentrations were determined using a Bio-Rad protein assay ([…], Hercules, CA, USA). The samples were subjected to SDS-PAGE and transferred to a PVDF membrane. The membrane was blocked with 5% non-fat milk, and then, incubated overnight at 4 °C with primary antibody against Cat K and GAPDH. […]

[4] = Acute toxicity testing, oral; type: in vivo, mice; conditions: mouse, in vivo, 300 mg/kg/day for 7 days, mice
Protocol: (§3) Initially, acute toxicity testing was carried out to establish appropriate dosages. Compound H-9 was administered orally at a dose of 300 mg/kg/day for 7 days.

mice = assay: Acute toxicity testing, oral; type: in vivo; conditions: 300 mg/kg/day for 7 days
Protocol: as §3

[5] = tested on: OVX-induced-osteoporosis mice; assay: OVX-induced osteoporosis mouse model, BMD of the thighbone; type: in vivo; conditions: 16 weeks; for BMD compared to the untreated model group: H-9 90, 30 and 10 mg/kg, raloxifene 5 mg/kg, intragastric
Protocol: To evaluate the anti-osteoporosis therapeutic potential of compound H-9, an ovariectomized (OVX)-induced osteoporosis mouse model was established and employed. The study included six experimental groups: a blank control group, an untreated model group, three H-9 treatment groups (doses of 90 mg/kg, 30 mg/kg, and 10 mg/kg), and a positive control group treated with raloxifene (5 mg/kg), with 10 mice in each group.
The mice were randomly divided into 2 groups: a blank control group (n = 10) and a model group (n = 50). After a 7-day acclimation period, the model group mice received a bilateral ovariectomy. Subsequently, the model group was further divided into 5 subgroups (n = 10): an untreated model group, three test groups, and a raloxifene group. Ten days after surgery, the three test groups were administered compound H-9 via intragastric administration at doses of 90 mg/kg, 30 mg/kg, and 10 mg/kg, respectively. Raloxifene was given to the positive control group at a dose of 5 mg/kg. All drugs were administered for 16 weeks, with a 1-day break following every 6 consecutive days of administration. The blank control and untreated model groups received an equivalent volume of saline. At the end of the administration period, the mice were anesthetized with sodium pentobarbital, and the BMD of the thighbone was measured using an OSTEOCORE 3 Bone Density Meter (Thule, Marseille, France).

Compound	IC50 (Recombinant human Cat K)	CTX-I concentration in the cell culture medium ([1]; compound 1 µM, 5 days, ELISA)	CTX-I concentration compared to the model group (in words) ([1]; compound 1 µM, 5 days, vs untreated model group)	Anti-bone resorption effects in vitro compared to MIV-711 (summary statement) ([1]; in vitro, RAW264.7 cells)	Anti-bone resorption activity by area of bone resorption pits (in words) [2]	Effect on Cat K levels (western blot) [3]	LD50 at 7 days [4]	Mouse deaths (mice)	BMD compared to the untreated model group [5]	Efficacy on BMD compared to the positive control ([5]; H-9 at 90 mg/kg vs raloxifene 5 mg/kg)
COc1ccc(S(=O)(=O)N2CCC[C@@H](C(=O)NCc3ccc(Cl)cc3)C2)cc1 [Compound H-9, (R)-N-(4-chlorobenzyl)-1-((4-methoxyphenyl)sulfonyl)piperidine-3-carboxamide]	0.08 ± 0.03 µM	20.46 ± 3.67 nM	reduced CTX-I concentration	comparable to those of MIV-711; also recorded: comparable to that of MIV-711	comparable to that of MIV-711	dose-dependent decrease in Cat K levels; also recorded: effectively downregulated cathepsin K expression; also recorded: decreased Cat K levels	> 300 mg/kg	No mouse deaths	increased the bone mineral density; also recorded: significant increases in BMD	comparable to that of the positive control
O=C(c1ccc(OCCN2CCCCC2)cc1)c1c(-c2ccc(O)cc2)sc2cc(O)ccc12 [raloxifene, reference compound]	–	–	–	–	–	–	–	–	significant increases in BMD	–
